Experimental data from patent US20030065039A1, “Biologically active 1,3-bis-aromatic-prop-2-en-1-ones, 1,3-bis-aromatic-propan-1-ones, and 1,3-bis-aromatic-prop-2-yn-1-ones” (Statens Serum Institute, priority 1997, published 2003).

Experiments:
Format in all cases: cell-based
TNF-α = TNF-α production by human peripheral blood mononuclear cells, culture supernatant (ELISA)
Method: Cells: Peripheral blood mononuclear cells obtained from healthy individuals. The cells were separated by a conventional method lymphoprep) and suspended in RMPI 1640 containing 5% human serum.
Stimulation of cytokine-release from human mononuclear cells: Human peripheral blood mononuclear cells from Danish donors were suspended in 1-10% (v/v) human serum in RPMI 1640 and adjusted to 2×10^6 cells per ml. 0.1 ml volumes were then dispensed into wells of 96-well microtiter plates. […] In some experiments cells were preincubated with drugs for 2 hrs before addition of stimulation antigens. The cultures were incubated overnight for TNF-α and IL-6 assays.
Supernatants were collected and assayed for TNF-α, IL-1α and IL-6 by ELISA procedures (Jakobsen et al., 1993, Fomsgaard et al., 1988, Hansen et al., 1991) with the following modifications. ELISA Maxisorp plates (Nunc, Roskilde, Denmark) were coated for 24 hrs at 4 C with 100 μl per well of 2.5 μg/ml rabbit polyclonal IgG to human recombinant TNF, IL-1α or IL-6 in 100 mM sodiumhydrogencarbonate. Non-attached sites were blocked for 1 h by 200 μl per well of 2% human serum slbumin in PBS (1 h at 37° C.), and the wells were washed 4 times in 2.5% NaCl, 0.1% Tween 20 (Merck, Darmstadt, Germany). This washing procedure was done after each of the following incubating steps:
1) 100 μl culture supernatants made to 50% (v/v) in incubation buffer (4% (v/v) normal rabbit serum, DAKO code X902), 1% polyethylene glycol (MW 6,000), 2.5% NaCl, 0.1% Tween 20 in phosphate buffered saline (PBS) were incubated 2 hrs at 37° C., dilutions of native as well as recombinant cytokine standards in the same incubation buffer were asssayed in parallel with the tested supernatants,
2) 100 μl per well of biotinilated rabbit antibodies to recombinant TNF-α, IL-1α or IL-6 (1.5 μg/ml in 0.5% human serum albumin, 0.1% Tween 20 in PBS) were added at 37° for 2 hrs,
3) […] per well of a 1:1000 dilution of streptavidin-peroxidase (Amersham, UK), at room temperature for 30 min.
Enzyme activities were quantitated after addition of 100 μl per well of 0.67 mg/ml 1,2-phenyldiamine hydrochloride (DAKO) dissolved in 100 mM citric acid-phosphate buffer, pH 5.0 containing 0.015% (v/v) H2O2. The reactions were stopped by adding 50 μl per well of 2.5 M H2SO4, and the optical densities are measured in an ELISA scanner at 490 nm against a test reference at 620 nm.
Assay: The compounds were prepared as stock solution at a concentration of 1 mg/ml in medium containing 10% DMSO. The dilutions were made in medium. The cells were stimulated with either SPAG (a malaria antigen TNF-inducer) or bacterial LPS. The supernatant of cell cultures were assayed for TNF-α using a commercial ELISA kit.

Leishmania promastigotes = Leishmania promastigotes Assay; settings: Leishmania; promastigotes, 3H-thymidine uptake; read-out: Leishmania IC50 ± SD
Procedure, shortened: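 L. major (WHO Iran vaccine strain) and L. donovani MHOM/KE/85/NLB 274 promastigotes (3×10^6/ml, day 3 and 6 cultures) exposed to compound 2 h at 26 °C, then 3H-thymidine 18 h; incorporation counted by scintillation. Microscopic counts and flagellar motility also assessed.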

Plasmodium falciparum = Plasmodium falciparum Assay; settings: Plasmodium falciparum; 3-H-hypoxanthine incorporation, 48 hours; read-out: Plasmodium IC50 ± SD
Procedure, shortened: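 Parasitized erythrocytes (~1% parasitemia, 5×10^8/ml) cultured 48 h in RPMI with test compound, with 3H-hypoxanthine added for the last 24 h. Growth inhibition read as 3H-hypoxanthine incorporation into parasite DNA by liquid scintillation; uninfected and untreated infected cultures run in parallel.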

human lymphocytes = assay: Lymphocyte Proliferation Assay; settings: Lymphocyte; PHA provoked proliferation of human lymphocytes; read-out: Lymphocytes IC50 ± SD
Procedure, shortened: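 Ficoll-isolated human blood mononuclear cells (0.63×10^5/ml) in RPMI 1640 with 5% FCS were cultured in triplicate with test compound and PHA or PPD for 3 or 7 days. Proliferation measured by ^3H-thymidine incorporation over the final 24 h; triplicate median recorded.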

[1] = Experiment 1, LPS, 12.5 μg/ml, Control 1.17
[2] = Experiment 1, LPS, 25 μg/ml, Control 1.17
[3] = Experiment 1, LPS, 50 μg/ml, Control 1.17
[4] = Experiment 1, LPS, 100 μg/ml, Control 1.17
[5] = Experiment 1, SPAG, 12.5 μg/ml, Control 3.73
[6] = Experiment 1, SPAG, 25 μg/ml, Control 3.73
[7] = Experiment 1, SPAG, 50 μg/ml, Control 3.73
[8] = Experiment 1, SPAG, 100 μg/ml, Control 3.73
[9] = Experiment 2, LPS, 1.562 μg/ml, Control 2.06
[10] = Experiment 2, LPS, 3.125 μg/ml, Control 2.06
[11] = Experiment 2, LPS, 6.25 μg/ml, Control 2.06
[12] = Experiment 2, LPS, 12.5 μg/ml, Control 2.06
[13] = Experiment 2, SPAG, 1.562 μg/ml, Control 2.28
[14] = Experiment 2, SPAG, 3.125 μg/ml, Control 2.28
[15] = Experiment 2, SPAG, 6.25 μg/ml, Control 2.28
[16] = Experiment 2, SPAG, 12.5 μg/ml, Control 2.28

SMILES | TNF-α production (OD values) (TNF-α; [1]) [OD] | TNF-α production (OD values) (TNF-α; [2]) [OD] | TNF-α production (OD values) (TNF-α; [3]) [OD] | TNF-α production (OD values) (TNF-α; [4]) [OD] | TNF-α production (OD values) (TNF-α; [5]) [OD] | TNF-α production (OD values) (TNF-α; [6]) [OD] | TNF-α production (OD values) (TNF-α; [7]) [OD] | TNF-α production (OD values) (TNF-α; [8]) [OD] | TNF-α production (OD values) (TNF-α; [9]) [OD] | TNF-α production (OD values) (TNF-α; [10]) [OD] | TNF-α production (OD values) (TNF-α; [11]) [OD] | TNF-α production (OD values) (TNF-α; [12]) [OD] | TNF-α production (OD values) (TNF-α; [13]) [OD] | TNF-α production (OD values) (TNF-α; [14]) [OD] | TNF-α production (OD values) (TNF-α; [15]) [OD] | TNF-α production (OD values) (TNF-α; [16]) [OD] | IC50 (Leishmania promastigotes) [µM] | IC50 (Plasmodium falciparum) [µM] | IC50 (human lymphocytes) [µM] | further results
COc1cc(/C=C/C(=O)c2cccc(F)c2)cc(OC)c1 [PH136, 3′-fluoro-3,5-dimethoxychalcone] | 0.00 | 0.00 | 0.00 | 0.01 | 0.01 | 0.00 | 0.01 | 0.00 | 1.70 | 1.81 | 2.18 | 0.08 | 3.29 | 4.00 | 1.39 | 0.02 | 5.5 ± 0.3 | 8.1 | 9.2 ± 0.5 | –
COc1cc(/C=C/C(=O)c2ccc(C3CCCCC3)cc2)cc(OC)c1 [PH104, 3,5-dimethoxy-4′-cyclohexylchalcone] | 1.15 | 0.59 | 0.41 | 0.31 | 0.93 | 0.13 | 0.03 | 0.01 | 1.54 | 1.41 | 1.08 | 0.91 | 2.47 | 2.44 | 1.50 | 0.43 | 31 ± 2 | 15 | 39 ± 2 | inhibition at 12.5 µg/mL (TNF-α; Homo sapiens, PBMC, concentration of 12.5 μg/ml, read-out: inhibition of the production of TNF-α): ~75%; inhibition of the production of TNF-α (TNF-α; at higher concentrations than 12.5 μg/ml): greater than 75%
